# Experimental data reported in patent EP2150620B1, “Method for preparing C-6 phosphorylated D-aldohexoses and C-6 phosphorylated D-aldohexose derivatives, and new C-6 phosphorylated D-aldohexose derivatives” (Libragen, priority 2007, dated 2008).
# Where two headings read alike, the source gives them in different places.
# Tests used:
# [1] = target: polyphosphate-glucose phosphotransferase (Mycobacterium tuberculosis, UniProt P9WIN1); settings: cited from earlier work; for Ki: read-out: Ki (ATP inhibits at high concentration)
# [2] = tested on: polyphosphate-glucose phosphotransferase; settings: acceptor D-glucose; label is the phosphate donor; Propionibacterium arabinosum enzyme; cited from earlier work
# [3] = tested on: polyphosphate-glucose phosphotransferase; settings: cited from earlier work; for Km: pH 7.5, 30°C; for inhibition of the enzyme: donor ATP
# [4] = tested on: polyphosphate-glucose phosphotransferase; settings: acceptor glucose; cited from earlier work
# [5] = tested on: polyphosphate-glucose phosphotransferase activity; assay: C-6 phosphorylation with enzymatic extracts of other Mycobacterium strains (Example 3); settings: all the enzymatic preparations (five strains); acceptor 150 mM; 24 hours at 30°C
# Text: The bacterial strains used are the followings: • Mycobacterium phlei ATCC 11758, • Mycobacterium smegmatis DSMZ 43465 (equivalent to ATCC 607), • Mycobacterium smegmatis ATCC 607 (equivalent to DSMZ 43465) • Mycobacterium smegmatis ATCC 700084 (or mc^2 155) • Mycobacterium sp DSMZ 2966 (equivalent to NRRL B-3683)
# [6] = tested on: polyphosphate-glucose phosphotransferase activity; assay: C-6 phosphorylation of acceptors with polyphosphate by an enzymatic extract, detected by thin layer chromatography (Examples 1 and 2); settings: Example 2; same synthesis and detection conditions as Example 1
# [7] = target: T1, rat brain hexokinase (Rattus norvegicus, UniProt P05708); settings: relative to glucose 6-phosphate; cited from earlier work
# T1 sequence (P05708 1-918): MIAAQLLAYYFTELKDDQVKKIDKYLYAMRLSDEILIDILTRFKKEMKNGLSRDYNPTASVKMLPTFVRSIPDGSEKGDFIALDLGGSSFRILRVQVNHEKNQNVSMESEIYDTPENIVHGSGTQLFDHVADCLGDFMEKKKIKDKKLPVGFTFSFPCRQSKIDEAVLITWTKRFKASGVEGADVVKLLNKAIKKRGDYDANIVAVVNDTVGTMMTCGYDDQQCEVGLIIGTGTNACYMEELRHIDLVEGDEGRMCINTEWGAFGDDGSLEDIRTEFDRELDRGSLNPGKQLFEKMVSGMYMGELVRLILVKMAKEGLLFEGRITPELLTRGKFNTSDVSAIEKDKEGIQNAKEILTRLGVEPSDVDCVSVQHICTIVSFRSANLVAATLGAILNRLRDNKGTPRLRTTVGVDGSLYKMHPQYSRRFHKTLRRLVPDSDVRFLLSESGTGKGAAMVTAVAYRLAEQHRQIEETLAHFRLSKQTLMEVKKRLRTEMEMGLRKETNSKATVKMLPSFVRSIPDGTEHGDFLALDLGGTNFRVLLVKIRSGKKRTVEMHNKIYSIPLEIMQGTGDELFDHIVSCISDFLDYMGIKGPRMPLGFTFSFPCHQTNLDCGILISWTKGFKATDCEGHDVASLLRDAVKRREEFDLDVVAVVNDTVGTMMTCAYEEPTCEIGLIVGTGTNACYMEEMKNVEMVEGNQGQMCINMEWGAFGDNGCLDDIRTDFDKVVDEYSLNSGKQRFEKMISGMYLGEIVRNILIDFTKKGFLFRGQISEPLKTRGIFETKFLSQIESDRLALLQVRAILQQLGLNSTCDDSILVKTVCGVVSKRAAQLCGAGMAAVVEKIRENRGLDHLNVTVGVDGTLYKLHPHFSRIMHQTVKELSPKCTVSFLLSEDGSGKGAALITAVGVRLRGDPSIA
# [8] = tested on: polyphosphate-glucose phosphotransferase; settings: cited from earlier work; for activity as phosphoryl acceptor: Arthrobacter sp. strain KM, irrespective of the phosphoryl donor, polyphosphate or ATP
# [9] = tested on: polyphosphate-glucose phosphotransferase; settings: donor ATP, acceptor D-glucose; cited from earlier work
# [10] = donor polyphosphate, acceptor D-glucose
# Chain of polyphosphate-glucose phosphotransferase (Mycobacterium tuberculosis, UniProt P9WIN1) (P9WIN1 whole entry): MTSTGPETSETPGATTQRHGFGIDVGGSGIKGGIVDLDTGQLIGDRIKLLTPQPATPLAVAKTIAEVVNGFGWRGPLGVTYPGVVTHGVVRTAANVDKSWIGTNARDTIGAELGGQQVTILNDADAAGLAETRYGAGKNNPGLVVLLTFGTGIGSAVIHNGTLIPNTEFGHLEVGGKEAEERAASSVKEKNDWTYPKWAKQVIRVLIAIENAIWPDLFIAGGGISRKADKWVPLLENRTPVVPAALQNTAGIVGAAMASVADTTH
smiles,measurement,setting,value
"Nc1ncnc2c1ncn2[C@@H]1O[C@H](COP(=O)(O)OP(=O)(O)OP(=O)(O)O)[C@@H](O)[C@H]1O [ATP, adenosine triphosphate]",Turnover,"[1]; acceptor D-glucose, label is the phosphate donor",116 s⁻¹
same,Km,"[1]; pH 7.5, donor ATP",880 µM
same,Ki,"[1]; pH 7.5, donor ATP",6.6 mM
same,Km,"[1]; pH 8.6, donor ATP",1400 µM
same,Ki,"[1]; pH 8.6, donor ATP",7.4 mM
same,Turnover,[2],Dimer: 2 x 30000 Turnover: 63 s^-1
same,Turnover,"[3]; acceptor D-glucose, label is the phosphate donor, Propionibacterium shermanii enzyme",25 s⁻¹
same,Km,[3]; label is the phosphate donor,1500 µM
same,activity with phosphate donor,[4],No activity with ATP.
O=P(O)(O)OC[C@H]1OC(O)[C@H](O)[C@@H](O)[C@@H]1O (stereo partly drawn) [Glc6P],inhibition of the enzyme,[1]; [10],inhibit
same,inhibition of the enzyme,[3]; acceptor D-glucose,inhibit
O=CC[C@@H](O)[C@H](O)[C@H](O)COP(=O)(O)O [2-deoxy-D-glucose-6-phosphate],synthesis of the phosphorylated product by the enzymatic preparations,[5],able to catalyze the synthesis
O=P(O)(O)O[C@H]1O[C@H](CO)[C@@H](O)[C@H](O)[C@H]1O [α-D-glucose-1-phosphate],phosphorylation of the acceptor (new substance in the 24 hours-incubation medium),[6],not phosphorylated
O=C[C@H](O)[C@@H](O)[C@H](O)[C@H](S)COP(=O)(O)O [5-thioglucose 6-phosphate],"inhibition constant Ki of rat brain hexokinase, lower than that seen with glucose 6-phosphate",[7],10 fold
Nc1ccn([C@@H]2O[C@H](COP(=O)(O)OP(=O)(O)OP(=O)(O)O)[C@@H](O)[C@H]2O)c(=O)n1 [CTP],Km,[3]; label is the phosphate donor,5900 µM
O=C[C@H](O)[C@H](O)[C@H](O)CO [D-ribose],phosphorylation of the acceptor (new substance in the 24 hours-incubation medium),[6],not phosphorylated
O=P(O)(O)OC[C@H]1O[C@@H](S)[C@H](O)[C@@H](O)[C@@H]1O [D-glucothiose-6-phosphate],synthesis of the phosphorylated product by the enzymatic preparations,[5],able to catalyze the synthesis
O=C(CO)[C@@H](O)[C@H](O)[C@H](O)COP(=O)(O)O [Fru6P],inhibition of the enzyme,"[1]; donor ATP, acceptor D-glucose",inhibit
same,inhibition of the enzyme,[1]; [10],inhibit
O=C[C@@H](O)[C@@H](O)[C@H](O)[C@H](O)CO [D-mannose],activity as % of the activity with glucose,[8]; donor ATP,About 30% of the activity with glucose.
same,activity as % of the activity with glucose,[8]; donor polyphosphate,~40%
same,Km,"[8]; pH 7.0, 30°C, donor polyphosphate",150 µM
O=CC[C@@H](O)[C@H](O)[C@H](O)CO [2-deoxy-D-glucose],activity as phosphoryl acceptor,[8],inert
O=C(CO)[C@@H](O)[C@H](O)[C@H](O)CO [D-fructose],activity as phosphoryl acceptor,[8],inert
same,phosphorylation of the acceptor (new substance in the 24 hours-incubation medium),[6],not phosphorylated
[Cl-].[Na+] [NaCl],inhibits above (concentration),[9],NaCl above 100 mM inhibits. Mol. weight: 59000
O=C[C@@H](O)[C@H](O)[C@H](O)[C@H](O)CO [D-altrose],phosphorylation of the acceptor (new substance in the 24 hours-incubation medium),[6],not phosphorylated
Nc1ncnc2c1ncn2[C@@H]1O[C@H](COP(=O)(O)OP(=O)(O)O)[C@@H](O)[C@H]1O [ADP],inhibition of the enzyme,"[1]; donor ATP, acceptor D-glucose",inhibit
same,inhibition of the enzyme,[3]; acceptor D-glucose,inhibit
O=C[C@H](O)[C@@H](O)[C@H](O)CO [D-xylose],inhibition of the enzyme,"[1]; donor ATP, acceptor D-glucose",inhibit
same,inhibition of the enzyme,[3]; acceptor D-glucose,inhibits
"O=P(O)(O)OCC1OC(OP(=O)(O)O)C(O)C(O)C1O [D-glucose-1,6-bisphosphate]",synthesis of the phosphorylated product by the enzymatic preparations,[5],could not be synthesized
Nc1ncnc2c1ncn2[C@@H]1O[C@H](COP(=O)(O)O)[C@@H](O)[C@H]1O [AMP],inhibition of the enzyme,"[1]; donor ATP, acceptor D-glucose",inhibit
O=C[C@H](O)[C@@H](O)[C@@H](O)[C@H](O)CO [D-galactose],activity as phosphoryl acceptor,[8],inert
same,phosphorylation of the acceptor (new substance in the 24 hours-incubation medium),[6],not phosphorylated
O=P(O)(O)OP(=O)(O)OP(=O)(O)O [TriPoly(P)],inhibition of the enzyme,[3]; acceptor D-glucose,inhibits
